Results taken from the supplement of paper PMC10307832.

Columns and labels:
Assay in all cases: relative viability (nuclei count vs DMSO), 5 days (fraction); higher = more cells survive
[1] = compound: CC1CC(=O)N(C2=CN=C(N=C2N1C3CCCC3)NC4=C(C=C(C=C4)C(=O)NC5CCN(CC5)C)OC)C [NPK76-II-72-1] + CC1(C)CCC(c2ccc(Cl)cc2)=C(CN2CCN(c3ccc(C(=O)NS(=O)(=O)c4ccc(N[C@H](CCN5CCOCC5)CSc5ccccc5)c(S(=O)(=O)C(F)(F)F)c4)cc3)CC2)C1 [Navitoclax] (partner 0.5 µM)
Method in brief: (§1)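 Dosing by pin tool came one day after lung cancer cell lines were seeded in 1536-well plates, using either one drug or a fixed anchor-drug dose plus five library-drug doses (not always all listed) in √10 steps. After 5 days, nuclei were counted on 4× images. Relative viability is treated-well nuclei count divided by vehicle-well nuclei count, and values are medians of duplicate plates.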

BI-2536 + Phenformin = compound: CC[C@@H]1C(=O)N(C)c2cnc(Nc3ccc(C(=O)NC4CCN(C)CC4)cc3OC)nc2N1C1CCCC1 [BI-2536] + N=C(N)NC(=N)NCCc1ccccc1 [Phenformin] (partner 250 µM)
Method in brief: as §1

NPK76-II-72-1 = compound: CC1CC(=O)N(C2=CN=C(N=C2N1C3CCCC3)NC4=C(C=C(C=C4)C(=O)NC5CCN(CC5)C)OC)C [NPK76-II-72-1]
Method in brief: (§2)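 Viability was defined as treated-well nuclei divided by vehicle-well nuclei, with the median taken over replicate plates. Cells from lung cancer lines sat overnight at 37 °C in 1536-well plates, received five √10-spaced library-drug doses by pinning on vehicle-anchored plates, and grew 5 days without medium change before one-step fixation, permeabilisation and Hoechst staining, 4× imaging and MetaXpress nuclear counts. Only plates with control CV under 25% and at least one doubling were kept.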

BI-2536 = compound: CC[C@@H]1C(=O)N(C)c2cnc(Nc3ccc(C(=O)NC4CCN(C)CC4)cc3OC)nc2N1C1CCCC1 [BI-2536]
Method in brief: as §2

Cell Line | relative viability ([1]; first compound 0.01 µM) | relative viability ([1]; first compound 0.03162 µM) | relative viability ([1]; first compound 0.1 µM) | relative viability ([1]; first compound 0.3162 µM) | relative viability ([1]; first compound 1 µM) | relative viability (BI-2536 + Phenformin; first compound 0.01 µM) | relative viability (BI-2536 + Phenformin; first compound 0.03162 µM) | relative viability (BI-2536 + Phenformin; first compound 0.1 µM) | relative viability (BI-2536 + Phenformin; first compound 0.3162 µM) | relative viability (BI-2536 + Phenformin; first compound 1 µM) | relative viability (NPK76-II-72-1; 0.01 µM) | relative viability (NPK76-II-72-1; 0.03162 µM) | relative viability (NPK76-II-72-1; 0.1 µM) | relative viability (NPK76-II-72-1; 0.3162 µM) | relative viability (NPK76-II-72-1; 1 µM) | relative viability (BI-2536; 0.01 µM) | relative viability (BI-2536; 0.03162 µM) | relative viability (BI-2536; 0.1 µM) | relative viability (BI-2536; 0.3162 µM) | relative viability (BI-2536; 1 µM)
NCI-H2126 | 0.82 | 0.857 | 0.874 | 0.799 | 0.881 | 0.5 | 0.495 | 0.231 | 0.279 | 0.247 | 0.966 | 1.06 | 0.999 | 0.996 | 1.09 | 1.02 | 0.991 | 0.656 | 0.314 | 0.245
LXF-289 | 0.877 | 0.964 | 0.954 | 0.88 | 0.941 | 0.467 | 0.488 | 0.159 | 0.0389 | 0.039 | 0.954 | 1.02 | 0.968 | 1.04 | 0.988 | 1.04 | 0.977 | 0.651 | 0.0735 | 0.0855
NCI-H2009 | 1.11 | 1.28 | 1.1 | 1.14 | 1.17 | 0.468 | 0.406 | 0.233 | 0.183 | 0.105 | 0.98 | 1.05 | 1 | 0.933 | 1.1 | 0.959 | 0.918 | 0.579 | 0.198 | 0.209
NCI-H2405 | 0.834 | 0.965 | 0.806 | 0.844 | 1.17 | 0.378 | 0.377 | 0.321 | 0.153 | 0.243 | 0.986 | 0.991 | 1.03 | 1.01 | 1.05 | 0.965 | 0.918 | 0.465 | 0.279 | 0.406
NCI-H1755 | 0.942 | 1.01 | 0.953 | 0.989 | 1.02 | 0.603 | 0.578 | 0.328 | 0.237 | 0.253 | 0.97 | 0.998 | 1 | 0.979 | 1.02 | 0.994 | 0.974 | 0.695 | 0.332 | 0.291
HCC-78 |  | 0.846 | 0.719 |  | 0.732 | 0.74 | 0.721 | 0.636 | 0.315 | 0.197 | 0.881 | 0.903 | 0.931 | 0.976 | 1 | 0.972 | 1.04 | 0.831 | 0.579 | 0.247
LOU-NH91 | 0.635 | 0.66 | 0.666 | 0.517 | 0.833 | 0.706 | 0.662 | 0.583 | 0.273 | 0.252 | 0.952 | 0.991 | 0.876 | 0.793 | 1.09 | 1.03 | 0.924 | 0.824 | 0.319 | 0.271
NCI-H3122 | 1.01 | 0.988 | 1 | 1.05 | 1.02 | 0.38 | 0.34 | 0.137 | 0.158 | 0.127 | 0.97 | 1.01 | 0.988 | 1 | 1 | 0.992 | 0.942 | 0.243 | 0.173 | 0.145
HCC-827 | 1.01 | 1.06 | 0.978 | 0.993 | 1.12 | 0.421 | 0.377 | 0.43 | 0.241 | 0.157 | 1.04 | 1.04 | 1.07 | 1.03 | 1.06 | 1.05 | 1.03 | 0.927 | 0.441 | 0.284
SK-LU-1 | 0.747 | 0.996 | 1.31 | 0.168 | 0.838 | 0.577 | 0.321 | 0.209 | 0.12 | 0.151 | 0.987 | 1.02 | 1.02 | 0.947 | 1.01 | 1.03 | 0.989 | 0.477 | 0.248 | 0.225
NCI-H1975 | 0.956 | 1.05 | 1.04 | 0.993 | 1.26 | 0.394 | 0.355 | 0.215 | 0.126 | 0.118 | 0.963 | 0.942 | 0.954 | 0.931 | 1.02 | 0.859 | 0.975 | 0.612 | 0.207 | 0.159
NCI-H1651 | 0.915 | 1.04 | 1.11 | 0.953 | 1.1 | 0.296 | 0.197 | 0.136 | 0.104 | 0.102 | 0.953 | 0.939 | 0.925 | 0.979 | 1.02 | 0.961 | 0.947 | 0.915 | 0.3 | 0.109
NCI-H441 | 0.634 | 0.946 | 0.671 | 0.533 | 0.73 | 0.805 | 0.492 | 0.23 | 0.217 | 0.228 | 1.04 | 1.12 | 1.03 | 0.914 | 1.04 | 0.874 | 0.503 | 0.281 | 0.191 | 0.224
LCLC-97TM1 |  | 0.392 | 0.52 | 0.439 | 0.488 | 0.43 | 0.432 | 0.366 | 0.137 | 0.154 | 1.07 | 1.03 | 0.959 | 0.752 | 1.13 | 0.969 | 1.01 | 0.813 | 0.129 | 0.0948
NCI-H727 | 0.372 | 0.397 | 0.572 | 0.494 | 0.652 | 0.529 | 0.527 | 0.386 | 0.319 | 0.313 | 0.882 | 1.03 | 0.836 | 1.02 | 0.976 | 1.02 | 0.998 | 0.764 | 0.512 | 0.31
NCI-H1355 | 0.881 | 0.959 | 0.928 | 0.871 | 0.993 | 0.427 | 0.408 | 0.219 | 0.193 | 0.196 | 0.933 | 0.976 | 0.987 | 0.92 | 1.02 | 1.01 | 0.958 | 0.638 | 0.174 | 0.163
HOP-62 | 0.973 | 1.12 | 0.947 | 1.06 | 0.954 | 0.7 | 0.654 | 0.43 | 0.141 | 0.141 | 0.935 | 1.02 | 0.937 | 0.875 | 1.05 | 1 | 1.07 | 0.775 | 0.194 | 0.155
NCI-H2085 | 1.11 | 1.12 | 1.06 | 1.06 | 1.19 | 0.785 | 0.69 | 0.307 | 0.183 | 0.243 | 0.921 | 1.02 | 0.961 | 0.952 | 1 | 1.01 | 0.976 | 0.798 | 0.222 | 0.333
